From patent publication EP1214299B1, “MUSCARINIC ANTAGONISTS” (SCHERING CORPORATION, priority 1999, dated 2001)
Read-outs that look alike come from different tables or passages of the source.

Assays:
Acetylcholine (ACh) = experiment: Microdialysis (ACh in striatal microdialysate); assay type: in vivo, male Sprague-Dawley Rats; conditions: dose of 10 mg/kg PO; ACh in rat striatum microdialysate
Method: The skull was exposed and drilled through to the dura at a point 0.2 mm anterior and 3.0 mm lateral to the bregma. At these coordinates, a guide cannula was positioned at the outer edge of the dura through the drilled opening, lowered perpendicularly to a depth of 2.5 mm, and permanent!y secured with dental cement to bone screws. Following the surgery, rats were given ampicillin (40 mg/kg, ip) and individually housed in modified cages. A recovery period of approximately 3 to 7 days was allowed before the microdialysis procedure was undertaken. • Microdialysis: All of the equipment and instrumentation used to conduct in vivo microdialysis was obtained from Bioanalytical Systems, Inc. (BAS). The microdialysis procedure involved the insertion through the guide cannula of a thin, needle-like perfusable probe (CMA/12,3 mm x 0.5 mm) to a depth of 3 mm in striatum beyond the end of the guide. The probe was connected beforehand with tubing to a microinjection pump (CMA/ 100). Rats were collared, tethered, and, following probe insertion, were placed in a large, clear, plexiglass bowl with litter material and access to food and water. The probe was perfused at 2 µl/min with Ringer's buffer (NaCl 147 mM; KCl 3.0 mM; CaCl2 1.2 mM; MgCl2 1.0 mM) containing 5.5 mM glucose, 0.2 mM L-ascorbate, and 1 µM neostigmine bromide at pH 7.4). To achieve stable baseline readings, microdialysis was allowed to proceed for 90 minutes prior to the collection of fractions. Fractions (20 µl) were obtained at 10 minute intervals over a 3 hour period using a refrigerated collector (CMA/170 or 200). Four to five baseline fractions were collected, following which the drug or combination of drugs to be tested was administered to the animal. Upon completion of the collection, each rat was autopsied to determine accuracy of probe placement. • Acetylcholine (ACh) analysis: The concentration of ACh in collected samples of microdialysate was determined using HPLC/electrochemical detection. Samples were auto-injected (Waters 712 Refrigerated Sample Processor) onto a polymeric analytical HPLC column (BAS, MF-6150) and eluted with 50 mM Na2HPO4, pH 8.5. To prevent bacterial growth, Kathon CG reagent (0.005%) (BAS) was included in the mobile phase. Eluent from the analytical column, containing separated ACh and choline, was then immediately passed through an immobilized enzyme reactor cartridge (BAS, MF-6151) coupled to the column outlet. The reactor contained both acetylcholinesterase and choline oxidase covalently bound to a polymeric backbone. […] Data acquisition was carried out using an IBM Model 70 computer equipped with a microchannel IEEE board. Integration and quantification of peaks were accomplished using "Maxima" chromatography software (Waters Corporation). Total run time per sample was 11 minutes at a flow rate of 1 ml/min. Retention times for acetylcholine and choline were 6.5 and 7.8 minutes, respectively. To monitor and correct for possible changes in detector sensitivity during chromatography, ACh standards were included at the beginning, middle and end of each sample queue.
Increases in ACh levels are consistent with presynaptic m2 receptor antagonism.
Data for representative and/or preferred compounds of the present invention are as follows (compounds were administered at a dose of 10 mg/kg PO): […]

[1] = target: human m1 muscarinic receptor (Homo sapiens, UniProt P11229); experiment: biochemical; assay type: binding
human m1 muscarinic receptor, sequence (P11229 whole entry): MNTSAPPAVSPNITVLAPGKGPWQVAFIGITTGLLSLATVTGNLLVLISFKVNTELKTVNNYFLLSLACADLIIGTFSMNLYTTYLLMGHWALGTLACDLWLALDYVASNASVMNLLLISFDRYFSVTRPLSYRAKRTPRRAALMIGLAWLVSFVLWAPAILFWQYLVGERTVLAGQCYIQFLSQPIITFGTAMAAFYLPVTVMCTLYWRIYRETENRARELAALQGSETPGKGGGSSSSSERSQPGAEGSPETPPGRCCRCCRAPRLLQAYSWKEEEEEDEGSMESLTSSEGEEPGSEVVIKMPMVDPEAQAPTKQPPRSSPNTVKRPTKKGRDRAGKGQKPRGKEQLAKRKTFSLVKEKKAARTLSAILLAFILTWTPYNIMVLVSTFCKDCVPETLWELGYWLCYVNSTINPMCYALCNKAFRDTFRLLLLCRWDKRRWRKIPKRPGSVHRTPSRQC

[2] = target: human m4 muscarinic receptor (Homo sapiens, UniProt P08173); experiment: biochemical; assay type: binding
human m4 muscarinic receptor, sequence (P08173 whole entry): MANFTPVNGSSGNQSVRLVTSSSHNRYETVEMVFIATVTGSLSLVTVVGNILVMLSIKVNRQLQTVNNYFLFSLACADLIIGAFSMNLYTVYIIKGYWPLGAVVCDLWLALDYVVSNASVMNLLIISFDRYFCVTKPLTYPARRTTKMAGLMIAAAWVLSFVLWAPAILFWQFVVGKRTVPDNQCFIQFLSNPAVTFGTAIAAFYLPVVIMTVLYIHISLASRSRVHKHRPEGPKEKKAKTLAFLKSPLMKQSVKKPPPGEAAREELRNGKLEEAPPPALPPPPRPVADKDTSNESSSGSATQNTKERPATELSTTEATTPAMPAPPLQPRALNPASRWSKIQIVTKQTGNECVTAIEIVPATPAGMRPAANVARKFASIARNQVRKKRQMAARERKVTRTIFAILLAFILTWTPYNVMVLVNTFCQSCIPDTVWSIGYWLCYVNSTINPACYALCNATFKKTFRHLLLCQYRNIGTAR

[3] = target: human m3 muscarinic receptor (Homo sapiens, UniProt P20309); conditions: read-out: m3 Ki; membranes from stably transfected CHO cell lines, 3H-QNB
human m3 muscarinic receptor, sequence (P20309 whole entry): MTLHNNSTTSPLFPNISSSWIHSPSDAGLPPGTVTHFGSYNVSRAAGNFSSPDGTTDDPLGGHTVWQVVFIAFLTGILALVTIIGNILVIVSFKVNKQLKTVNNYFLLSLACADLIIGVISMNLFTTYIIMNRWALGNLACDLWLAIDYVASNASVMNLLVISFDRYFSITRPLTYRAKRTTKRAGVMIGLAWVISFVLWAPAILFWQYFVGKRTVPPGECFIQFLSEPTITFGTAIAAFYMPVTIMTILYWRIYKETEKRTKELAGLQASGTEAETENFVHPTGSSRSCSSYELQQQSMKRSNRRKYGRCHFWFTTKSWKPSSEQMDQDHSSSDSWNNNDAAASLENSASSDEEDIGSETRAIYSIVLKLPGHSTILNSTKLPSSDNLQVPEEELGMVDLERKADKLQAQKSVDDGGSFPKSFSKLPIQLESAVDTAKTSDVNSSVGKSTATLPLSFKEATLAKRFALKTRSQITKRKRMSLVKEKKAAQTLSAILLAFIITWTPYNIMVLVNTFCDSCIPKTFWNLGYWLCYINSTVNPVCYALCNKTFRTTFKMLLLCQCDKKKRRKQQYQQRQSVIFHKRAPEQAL

m5 = target: T1, m5 (Homo sapiens, UniProt P08912); conditions: read-out: m5 Ki
T1 sequence (P08912 1-532): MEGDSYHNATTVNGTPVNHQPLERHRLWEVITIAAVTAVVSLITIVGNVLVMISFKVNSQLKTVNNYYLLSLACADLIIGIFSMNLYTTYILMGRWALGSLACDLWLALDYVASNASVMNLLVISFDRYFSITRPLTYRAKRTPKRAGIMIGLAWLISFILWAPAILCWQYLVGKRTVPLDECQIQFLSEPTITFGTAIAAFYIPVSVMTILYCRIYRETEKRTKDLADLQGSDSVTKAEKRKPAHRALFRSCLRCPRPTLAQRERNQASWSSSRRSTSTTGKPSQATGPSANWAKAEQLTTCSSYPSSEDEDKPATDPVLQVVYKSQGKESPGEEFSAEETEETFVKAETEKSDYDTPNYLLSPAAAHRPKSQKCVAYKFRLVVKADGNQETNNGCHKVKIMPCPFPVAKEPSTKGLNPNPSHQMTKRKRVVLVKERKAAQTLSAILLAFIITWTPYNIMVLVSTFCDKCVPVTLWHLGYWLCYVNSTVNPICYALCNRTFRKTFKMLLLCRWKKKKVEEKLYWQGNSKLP

With `COc1ccc(S(=O)(=O)c2ccc(C3(C4CCN(C5CCN(C(=O)c6cccc(F)c6N)CC5)CC4)OCCO3)cc2)cc1` [Example 2F] as the compound, how does the “Microdialysis Maximum % of baseline” value (Acetylcholine (ACh)) read?
The value was 186 % of baseline.

How did the “Microdialysis Maximum % of baseline” value (Acetylcholine (ACh)) turn out when `COc1ccc(S(=O)(=O)c2ccc(C3(C4CCN(C5CCN(C(=O)c6cccc(C)c6N)CC5)CC4)OCCO3)cc2)cc1` [Example 2] was run?
The value was 194 % of baseline.

`Nc1cc(F)ccc1C(=O)N1CCC(N2CCC(C3(c4ccc(S(=O)(=O)c5cccc(Cl)c5)cc4)OCCO3)CC2)CC1` [Example 3E] was tested. Which “Microdialysis Maximum % of baseline” value (Acetylcholine (ACh)) did it give?
The value was 188 % of baseline.

`Nc1ccccc1C(=O)N1CCC(N2CCC(Cc3ccc(S(=O)(=O)c4cccc(Cl)c4)cc3)CC2)CC1` [Example 7A] was tested. Which Ki [1] did it give?
The Ki was 658 nM.

What about the “Microdialysis Maximum % of baseline” value (Acetylcholine (ACh)) of the same compound?
The value was 150 % of baseline.

What about the Ki [2] of the same compound?
The Ki was 33.3 nM.

With `Cc1cccc(C(=O)N2CCC(N3CCC(Cc4ccc(S(=O)(=O)c5cccc(Cl)c5)cc4)CC3)CC2)c1N` [Example 7] as the compound, how does the Ki [3] read?
The Ki was 698 nM.

What about the Ki (m5) of the same compound?
The Ki was 84.5 nM.

What about the Ki ([1]; membranes from stably transfected CHO cell lines, 3H-QNB, read-out: m1 Ki) of the same compound?
The Ki was 650 nM.

And the “Microdialysis Maximum % of baseline” value (Acetylcholine (ACh))?
Its value is 180 % of baseline.

What about the Ki ([2]; membranes from stably transfected CHO cell lines, 3H-QNB, read-out: m4 Ki) of the same compound?
Its Ki is 61.4 nM.
